In patent US8002614B2, “Microbiocidal control in the processing of meat-producing four-legged animals” (priority 2005, dated 2011):

Assay type: physicochemical
Text: In many high output meat packing plants, space to install the biocide feeder in an easily accessible location is not readily available. The smaller area required for a BCDMH feeder system relative to a DBDMH system, is advantageous with respect to installation flexibility. For example, because of higher bromine output, a plant utilizing BCDMH may utilize a smaller number of biocide feeders than a plant utilizing DBDMH feeders. Also, because each point of application of aqueous biocide in the plant requires a certain bromine residual in a certain flow of water, the much higher output of bromine from a BCDMH feeder to achieve the desired bromine residual, requires much less water flow to the feeder for BCDMH than DBDMH. Since the source of water and the feeder are often quite distant from each other, a need for providing a new line just for the feeder is disadvantageous and expensive. But, pursuant to this invention, oftentimes excess water supplied to existing equipment near the feeder can be employed thereby eliminating the need for installation of a new special water line to the feeder. In other words, since BCDMH requires less than half the water flow of DBDMH, in many situations this water source would have sufficient flow for BCDMH while that same flow would be insufficient for DBDMH. […]

Compound: CC1(C)C(=O)N(Cl)C(=O)N1Br [BCDMH, N,N′-bromochloro-5,5-dimethylhydantoin]
- water solubility: 890 ppm

Compound: CC1(C)C(=O)N(Br)C(=O)N1Br [DBDMH, 1,3-dibromo-5,5-dimethylhydantoin]
- water solubility: 405 ppm
